Laboratory results reported in patent publication US6995182B2, “1-sulfonyl pyrrolidine derivatives” (Hoffmann-La Roche Inc., priority 2000, dated 2006).

melting point	SMILES
91 °C	COC(=O)[C@H]1CC[C@@H](c2ccc(F)cc2)N1S(=O)(=O)c1ccc(C)cc1 (racemic) [Example 1, (2RS,5SR)-5-(4-Fluoro-phenyl)-1-(toluene-4-sulfonyl)-pyrrolidine-2-carboxylic acid methyl ester]
82 °C	Cc1ccc(S(=O)(=O)N2[C@@H](CO)CC[C@H]2c2ccc(F)cc2)cc1 (racemic) [Example 2, (2RS,5SR)-[5-(4-Fluoro-phenyl)-1-(toluene-4-sulfonyl)-pyrrolidin-2-yl]-methanol]
137 °C	Cc1ccc(S(=O)(=O)N2[C@@H](C(N)=O)CC[C@H]2c2ccc(F)cc2)cc1 (racemic) [Example 3, (2RS,5SR)-5-(4-Fluoro-phenyl)-1-(toluene-4-sulfonyl)-pyrrolidine-2-carboxylic acid amide]
217 °C	Cc1ccc(S(=O)(=O)N2[C@@H](C(=N)NO)CC[C@H]2c2ccc(F)cc2)cc1 (racemic) [Example 7, (2RS,5SR)-5-(4-Fluoro-phenyl)-N-hydroxy-1-(toluene-4-sulfonyl)-pyrrolidine-2-carboxamidine]
152 °C	COC[C@@H]1CC[C@H](c2ccc(F)cc2)N1S(=O)(=O)c1ccc(C)cc1 (racemic) [Example 8, (2RS,5SR)-2-(4-Fluoro-phenyl)-5-methoxymethyl-1-(toluene-4-sulfonyl)-pyrrolidine]
116 °C	Cc1ccc(S(=O)(=O)N2[C@@H](CC#N)CC[C@H]2c2ccc(F)cc2)cc1 (racemic) [Example 10, (2RS,5SR)-[5-(4-Fluoro-phenyl)-1-(toluene-4-sulfonyl)-pyrrolidin-2-yl]-acetonitrile]
165 °C	Cc1ccc(S(=O)(=O)N2[C@@H](c3ncon3)CC[C@H]2c2ccc(F)cc2)cc1 (racemic) [Example 14, (2RS,5SR)-3-[5-(4-Fluoro-phenyl)-1-(toluene-4-sulfonyl)-pyrrolidin-2-yl]-[1,2,4]oxadiazole]
128 °C	Cc1ccc(S(=O)(=O)N2[C@@H](c3nc(C)no3)CC[C@H]2c2ccc(F)cc2)cc1 (racemic) [Example 25, (2RS,5SR)-5-[5-(4-Fluoro-phenyl)-1-(toluene-4-sulfonyl)-pyrrolidin-2-yl]-3-methyl-[1,2,4]oxadiazole]
160 °C	Cc1ccc(S(=O)(=O)N2[C@@H](c3ncn(C)n3)CC[C@H]2c2ccc(F)cc2)cc1 (racemic) [Example 26, (2RS,5SR)-3-[5-(4-Fluoro-phenyl)-1-(toluene-4-sulfonyl)-pyrrolidin-2-yl]-1-methyl-1H-[1,2,4]triazole]
150 °C	Cc1ccc(S(=O)(=O)N2[C@@H](c3nnn(C)n3)CC[C@H]2c2ccc(F)cc2)cc1 (racemic) [Example 27, (2RS,5SR)-5-[5-(4-Fluoro-phenyl)-1-(toluene-4-sulfonyl)-pyrrolidin-2-yl]-2-methyl-2H-tetrazole]
91 °C	Cc1ccc(S(=O)(=O)N2[C@@H](CCc3nc(C)no3)CC[C@H]2c2ccc(F)cc2)cc1 (racemic) [Example 30, (2RS,5SR)-5-{2-[5-(4-Fluoro-phenyl)-1-(toluene-4-sulfonyl)-pyrrolidin-2-yl]-ethyl}-3-methyl-[1,2,4]oxadiazole]
145 °C	Cc1ccc(S(=O)(=O)N2[C@@H](CCc3ncnn3C)CC[C@H]2c2ccc(F)cc2)cc1 (racemic) [Example 78, (2RS,5SR)-5-{2-[5-(4-Fluoro-phenyl)-1-(toluene-4-sulfonyl)-pyrrolidin-2-yl]-ethyl}-1-methyl-1H-[1,2,4]triazole]

More lines, now with the values behind:

SMILES	melting point
Cc1ccc(S(=O)(=O)N2[C@@H](C(=O)NCc3cccnc3)CC[C@H]2c2ccc(F)cc2)cc1.Cl (racemic)	186 °C
CC(=O)NC[C@H]1CC[C@@H](c2ccc(F)cc2)N1S(=O)(=O)c1ccc(C)cc1 (racemic) [Example 9, (2RS,5SR)-N-[5-(4-Fluoro-phenyl)-1-(toluene-4-sulfonyl)-pyrrolidin-2-yl-methyl]-acetamide]	117 °C
CCC(=O)NC[C@H]1CC[C@@H](c2ccc(F)cc2)N1S(=O)(=O)c1ccc(C)cc1 (racemic) [Example 15, (2RS,5SR)-N-[5-(4-Fluoro-phenyl)-1-(toluene-4-sulfonyl)-pyrrolidin-2-yl-methyl]-propionamide]	142 °C
Cc1ccc(S(=O)(=O)N2[C@@H](CCNC(=O)c3ccccc3)CC[C@H]2c2ccc(F)cc2)cc1 (racemic) [Example 18, (2RS,5SR)-N-{2-[5-(4-Fluoro-phenyl)-1-(toluene-4-sulfonyl)-pyrrolidin-2-yl]-ethyl}-benzamide]	60 °C
CC(=O)NCC[C@H]1CC[C@@H](c2ccc(F)cc2)N1S(=O)(=O)c1ccc(C)cc1 (racemic) [Example 20, (2RS,5SR)-N-{2-[5-(4-Fluoro-phenyl)-1-(toluene-4-sulfonyl)-pyrrolidin-2-yl]-ethyl}-acetamide]	124 °C
Cc1ccc(S(=O)(=O)N2[C@@H](CCC(N)=O)CC[C@H]2c2ccc(F)cc2)cc1 (racemic) [Example 29, (2RS,5SR)-3-[5-(4-Fluoro-phenyl)-1-(toluene-4-sulfonyl)-pyrrolidin-2-yl]-propionamide]	136 °C
Cc1ccc(S(=O)(=O)N2[C@@H](CCC#N)CC[C@H]2c2ccc(F)cc2)cc1 (racemic) [Example 31, (2RS,5SR)-3-[5-(4-Fluoro-phenyl)-1-(toluene-4-sulfonyl)-pyrrolidin-2-yl]-propionitrile]	86 °C
Cc1ccc(S(=O)(=O)N2[C@@H](CCC(=N)NO)CC[C@H]2c2ccc(F)cc2)cc1 (racemic) [Example 34, (2RS,5SR)-3-[5-(4-Fluoro-phenyl)-1-(toluene-4-sulfonyl)-pyrrolidin-2-yl]-N-hydroxy-propionamidine]	134 °C
Cc1ccc(S(=O)(=O)N2[C@@H](CNC(=O)C3CCCC3)CC[C@H]2c2ccc(F)cc2)cc1 (racemic) [Example 37, (2RS,5SR)-Cyclopentanecarboxylic acid [5-(4-fluoro-phenyl)-1-(toluene-4-sulfonyl)-pyrrolidin-2-yl-methyl]-amide]	147 °C
Cc1ccc(S(=O)(=O)N2[C@@H](CNC(=O)C(C)(C)C)CC[C@H]2c2ccc(F)cc2)cc1 (racemic) [Example 38, (2RS,5SR)-N-[5-(4-Fluoro-phenyl)-1-(toluene-4-sulfonyl)-pyrrolidin-2-yl-methyl]-2,2-dimethyl-propionamide]	128 °C
Cc1ccc(S(=O)(=O)N2[C@@H](CCCO)CC[C@@H]2c2ccc(F)cc2)cc1 (racemic) [Example 44, (2RS,5RS)-3-[5-(4-Fluoro-phenyl)-1-(toluene-4-sulfonyl)-pyrrolidin-2-yl]-propan-1-ol]	93 °C
Cc1ccc(S(=O)(=O)N2[C@H](CCCC#N)CC[C@@H]2c2ccc(F)cc2)cc1 (racemic) [Example 45, (2RS,5RS)-4-[5-(4-Fluoro-phenyl)-1-(toluene-4-sulfonyl)-pyrrolidin-2-yl]-butyronitrile]	74 °C
Cc1ccc(S(=O)(=O)N2[C@H](CCCc3nnn(C)n3)CC[C@@H]2c2ccc(F)cc2)cc1 (racemic) [Example 49, (2RS,5RS)-5-{3-[5-(4-Fluoro-phenyl)-1-(toluene-4-sulfonyl)-pyrrolidin-2-yl]-propyl}-2-methyl-2H-tetrazole]	107 °C
Cc1ccc(S(=O)(=O)N2[C@H](CCCc3nnnn3C)CC[C@@H]2c2ccc(F)cc2)cc1 (racemic) [Example 50, (2RS,5RS)-5-{3-[5-(4-Fluoro-phenyl)-1-(toluene-4-sulfonyl)-pyrrolidin-2-yl]-propyl}-1-methyl-1H-tetrazole]	153 °C
Cc1ccc(S(=O)(=O)N2[C@H](CCCCC#N)CC[C@@H]2c2ccc(F)cc2)cc1 (racemic) [Example 51, (2RS,5RS)-5-[5-(4-Fluoro-phenyl)-1-(toluene-4-sulfonyl)-pyrrolidin-2-yl]-pentanenitrile]	79 °C
Cc1ccc(S(=O)(=O)N2[C@H](CCCCc3nnnn3C)CC[C@@H]2c2ccc(F)cc2)cc1 (racemic) [Example 54, (2RS,5RS)-5-{4-[5-(4-Fluoro-phenyl)-1-(toluene-4-sulfonyl)-pyrrolidin-2-yl]-butyl}-1-methyl-1H-tetrazole]	120 °C
CC(=O)NCC[C@H]1CC[C@@H](c2ccc(F)cc2)N1S(=O)(=O)c1ccc(Cl)cc1 (racemic) [Example 56, (2RS,5SR)-N-{2-[1-(4-Chloro-benzenesulfonyl)-5-(4-fluoro-phenyl)-pyrrolidin-2-yl]-ethyl}-acetamide]	103 °C
O=C(NCC[C@H]1CC[C@@H](c2ccc(F)cc2)N1S(=O)(=O)c1ccc(Cl)cc1)C1CC1 (racemic) [Example 57, (2RS,5SR)-Cyclopropanecarboxylic acid {2-[1-(4-chloro-benzenesulfonyl)-5-(4-fluoro-phenyl)-pyrrolidin-2-yl]-ethyl}-amide]	80 °C
CC(=O)NCCC[C@@H]1CC[C@H](c2ccc(F)cc2)N1S(=O)(=O)c1ccc(Cl)cc1 (racemic) [Example 66, (2RS,5RS)-N-{3-[1-(4-Chloro-benzenesulfonyl)-5-(4-fluoro-phenyl)-pyrrolidin-2-yl]-propyl}-acetamide]	49 °C
Cc1ccc(S(=O)(=O)N2[C@H](CCCc3nc(C)no3)CC[C@@H]2c2ccc(F)cc2)cc1 (racemic) [Example 71, (2RS,5RS)-5-{3-[5-(4-Fluoro-phenyl)-1-(toluene-4-sulfonyl)-pyrrolidin-2-yl]-propyl}-3-methyl-[1,2,4]oxadiazole]	91 °C
Cn1nnc(CC[C@H]2CC[C@@H](c3ccc(F)cc3)N2S(=O)(=O)c2ccc(Cl)cc2)n1 (racemic) [Example 73, (2RS,5SR)-5-{2-[1-(4-Chloro-benzenesulfonyl)-5-(4-fluoro-phenyl)-pyrrolidin-2-yl]-ethyl}-2-methyl-2H-tetrazole]	122 °C
Cc1ccc(S(=O)(=O)N2[C@@H](CCc3nc(C4CC4)no3)CC[C@H]2c2ccc(F)cc2)cc1 (racemic) [Example 75, (2RS,5SR)-3-Cyclopropyl-5-{2-[5-(4-fluoro-phenyl)-1-(toluene-4-sulfonyl)-pyrrolidin-2-yl]-ethyl}-[1,2,4]oxadiazole]	129 °C
